Test results reported in patent US7666898B2, “Multivalent indole compounds and use thereof as phospholipase-A2 inhibitors” (Ilypsa, Inc., priority 2005, dated 2010).

Assays:
[1] = target: human pancreatic secreted PLA2 (hps PLA2) (Homo sapiens, UniProt P04054); conditions: reported literature data; cited from earlier work
[2] = target: porcine pancreatic secreted PLA2 (pps PLA2) (Sus scrofa, UniProt P00592); conditions: reported literature data; cited from earlier work
[3] = tested on: C57BL/6J mouse model of obesity; test: Mouse diet-induced obesity model (Example 14); assay type: in vivo; conditions: low fat control diet D12328, 25 or 90 mg/kg/d, vs low fat diet alone
Text: The high-fat diet-fed C57BL/6J mouse model of human diabetes, originally introduced by Surwit and colleagues (Surwit, R S, et al. (1988) “Diet-induced type II diabetes in C57BL/6J mice”, Diabetes 37: 1163-1167) is a widely accepted, clinically relevant, polygenic model that induces obesity, dyslipidemia, glucose- and insulin-resistance as early as 3 weeks after commencing the high fat diet (Winzell, M S and Ahren, B (2004) “The high-fat diet-fed mouse: a model for studying mechanisms and treatment of impaired glucose tolerance and type 2 diabetes”, Diabetes 53 Suppl 3: S215-219). This model was used to investigate the effects of indole and indole-related Test Articles. Avandia (rosiglitazone) was used as a control Test Article.
Female C57Black/6J mice (5-6 weeks old) were obtained from Jackson laboratories (Bar Harbor, Me.). […] Diet and water was provided ad libitum throughout the course of the study. Animals were acclimated for at least seven days, and then randomized by weight into twelve groups of eight animals each. Each group of animals was placed on diets with and without Test Articles as described in Table 12. All diets other than Laboratory Rodent Diet 5001 were provided by Research Diets (New Brunswick, N.J.).
In these studies and the accompanying figures, Diet D12328 from Research Diets is referred to as the “Low Fat” or Control diet/chow, while Diet D12331 from Research Diets is referred to as the “High Fat” diet. Groups 1-6 were fed diet D12328 that contained either no drug (Group 1) or varying amounts of Test Articles (Groups 2-6). Groups 7-12 were fed diet D12331 that contained either no drug (Group 7) or varying amounts of Test Articles (Groups 8-12). The Test Article content was calculated such that ad libitum consumption by the animals would deliver doses (in mg of Test Article per kg animal weight per day) approximating those listed in Table 12.
Animals were maintained on the diets for up to eleven weeks. Body weights were recorded weekly. Blood was drawn within 1-2 hrs of lights-on. without fasting. The serum was analyzed for glucose, total cholesterol, triglycerides (TG) and lysophospholipid (LPC) content.
Statistical analyses were performed using GraphPad Prism 4.03. (GraphPad Software, Inc., San Diego, Calif.). Two sets of statistical analyses were performed. First, the Low Fat Chow, no treatment group was compared by student's two-tailed T-test against the High Fat, High Sucrose diet, no treatment group. […] Second, all treatment groups on the High Fat, High Sucrose diet were compared to the no-treatment group on that diet by 1-way ANOVA, followed by a Dunnett's post-test.

[4] = tested on: LDL receptor knockout mice (B6.129S7-Ldlrtm1Her); test: LDL receptor knockout mouse model (Example 15); assay type: in vivo; conditions: low fat control diet D12328, 25 or 90 mg/kg/d, vs low fat diet alone
Text: Mice lack an enzyme found in humans, cholesterol ester transfer protein (CETP), which is responsible for the transfer of cholesterol from high density lipoproteins (HDL) to the ApoB-containing lipoproteins such as very low density lipoproteins (VLDL) and low density lipoproteins (LDL). Consequently, LDL cholesterol levels in wild-type mice are very low compared to those seen in humans. The low density lipoprotein receptor (LDLR) is involved with clearing LDL and lipoprotein remnants containing apoE. If the LDLR is inactivated, LDL cholesterol levels rise to levels seen in humans. On a normal rodent diet, the LDL cholesterol levels in LDLR deficient mice are elevated compared to wild-type mice. If the LDLR deficient mice are fed a Western-type diet containing elevated levels of fats and cholesterol, then the total cholesterol and LDL cholesterol levels become highly elevated and can exceed 1000 mg/dL and 300 mg/dL, respectively. This model was used to investigate the effects of indole and indole-related Test Articles. Avandia (rosiglitazone) and Zetia (ezetimibe) were used as control test articles.
Male LDL receptor knockout mice (B6.129S7-Ldlrtm1Her) were obtained from Jackson Labs (Bar Harbor, Me.). […] Diet and water was provided ad libitum throughout the course of the study. Animals were acclimated for at least seven days, and then randomized by body weight into fourteen groups of seven animals each. Each group of animals was placed on diets with and without Test Articles as described in Table 13. All diets other than Laboratory Rodent Diet 5001 were provided by Research Diets (New Brunswick, N.J.).
In these studies and the accompanying figures, Diet D12328 from Research Diets is referred to as the “Low Fat” or Control diet, while Diet D12079B from Research Diets is referred to as the “Western” diet. Groups 1-7 were fed diet D12328 that contained either no drug (Group 1) or varying amounts of Test Articles (Groups 2-7). Groups 8-14 were fed diet D12079 that contained either no drug (Group 8) or varying amounts of Test Articles (Groups 9-14). The Test Article content was calculated such that ad libitum consumption by the animals would deliver doses (in mg of Test Article per Kg animal weight per day) approximating those listed in Table 13.
Animals were maintained on the diets for eight weeks. Body weights were recorded weekly. Blood was drawn within 1-2 hrs of lights-on, without fasting. The serum was analyzed for total cholesterol, LDL cholesterol, HDL cholesterol, triglycerides (TG), free fatty acid (FFA) and lysophospholipid (LPC) content.
Statistical analyses were performed using GraphPad Prism 4.03. (GraphPad Software, Inc., San Diego, Calif.). Two sets of statistical analyses were performed. […]

[5] = Toxicology, 5-day daily oral gavage; assay type: in vivo, mice; conditions: 5 consecutive days
Text: The purpose of this study was to evaluate the toxicity of indole and indole-related Test Articles when administered daily via oral gavage to mice for 5 consecutive days.
Assessment of toxicity was based on mortality; clinical signs, body weight, food consumption, clinical pathology, and macroscopic pathology data.

[6] = Mouse pharmacokinetic study (Example 13); conditions: for bioavailability: male, CD-1, mouse, in vivo, po, 30 mg/kg
Description: The plasma exposure of male CD-1 mice to indole and indole-related test articles (TAs) following intravenous (IV, 3 mg/kg) and oral (PO, 30 mg/kg) routes of administration was measured. This model was used to investigate the bioavailability of indole and indole-related TAs in mouse.
Two groups (N=18 and 27) of male CD-1 mice were used for the study.
The components were mixed by vortexing and sonicating in a warming bath for 60 minutes. Animals were fasted overnight prior to start of the study. On study day (1), formulations were sonicated for an hour to make sure that no visible particles were present prior to dosing, or if present were evenly distributed in suspension. Formulated test article were stirred continuously during dosing.
All animals were weighed on study day (1) and the body weights were recorded and used for dose calculation. […] Blood samples (0.5 mL) were collected at specified time intervals into labeled, yellow-capped Microtainer tubes. The tubes were centrifuged (8,000×g, 10 min). Serum was then pipetted off into labeled Eppendorf® tubes and frozen at −80° C. Clinical observations were recorded as needed.
Analysis of serum samples was performed by LC/MS/MS (Waters Quattro Premier, Milford, Mass.). Areas under curves (AUC) were calculated using Graphpad Prism Version 4. Bioavailability was calculated using the following equation: (Bioavailability)=(AUC0-t, oral/AUC0-t, iv)×(Doseiv/Doseoral)×100 where AUC0-t=total area under curve at the last measurable time point

[7] = target: T1, human group 1B PLA2 (hps PLA2) (Homo sapiens, UniProt P04054); test: Fluorimetric PLA2 inhibition assay, human (Example 8); assay type: biochemical; conditions: read-out: ILYPSA % inhibition at 15 μM hps PLA2
T1 construct: made in house; host or cells: E. coli
Text: (§1) In this example, a fluorimetric assay procedure was used to evaluate the indole and indole-related compounds of the invention as inhibitors of group 1B phospholipase A2 (PLA2) from human, mouse and porcine.
(§2) In general, this assay used a phosphatidylmethanol substrate with a pyrene fluorophore on the terminal end of the sn-2 fatty acyl chain. Without being bound by theory, close proximity of the pyrenes from neighboring phospholipids in a phospholipid vesicle caused the spectral properties to change relative to that of monomeric pyrene. Bovine serum albumin was present in the aqueous phase and captured the pyrene fatty acid when it is liberated from the glycerol backbone owing to the PLA2-catalyzed reaction. […] The effect of a given inhibitor and inhibitor concentration on human, mouse and porcine phospholipase was determined.
(§3) Recombinant human and mouse group 1B PLA2 were cloned and expressed in E. coli as insoluble inclusion bodies. The inclusion bodies were isolated and purified by sonicating cell pellet in lysis buffer (50 mM Tris-HCl pH 7.0, 250 mM NaCl, 0.5% Triton 100), centrifugation at 12,000×g, and washing three times in washing buffer (20 mM Tris-HCl pH 7.0, 250 mM NaCl, 0.5% Triton 100). Then the inclusion bodies were dissolved in dissolving buffer (50 mM Tris-HCl pH 7.0, 250 mM NaCl, 6 M Guanidine-HCl, 1 mM DTT) and dialyzed four times against 10 volumes of refolding buffer (20 mM Tris-HCl pH 7.0, 250 mM NaCl, 0.5M Guanidine-HCl, 5% (w/w) Glycerol, 2 mM reduced glutathione and 0.4 mM oxidized glutathione) at 4° C. The correctly refolded proteins were concentrated using Amicon Stirred cell under nitrogen pressure (<70 psi) and dialyzed against 10 volumes of 50 mM Tris-HCl pH 7.0, 250 mM NaCl and 5% (w/w) glycerol. Human and mouse group 1B PLA2 were further purified by High S ion exchange and gel filtration columns.
(§4) The following reagents were prepared: • 1. PPyrPM stock solution (1 mg/ml) in toluene:isopropanol (1:1) • 2. […]
(§5) The following procedure was performed to evaluate the inhibitory potency of the evaluated compounds. • 1. […]

[8] = target: T2, mouse group 1B PLA2 (mps PLA2) (Mus musculus, UniProt Q9Z0Y2); test: Fluorimetric PLA2 inhibition assay, mouse (Example 8); assay type: biochemical; conditions: read-out: ILYPSA % inhibition at 15 μM mps PLA2
T2 construct: made in house; host or cells: E. coli
T2 sequence (Q9Z0Y2 23-146): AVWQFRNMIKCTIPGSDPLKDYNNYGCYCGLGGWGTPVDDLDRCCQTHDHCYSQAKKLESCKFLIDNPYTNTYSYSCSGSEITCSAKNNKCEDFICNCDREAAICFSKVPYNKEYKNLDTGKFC
Text: as §1, §2, §3, §4, §5

Chain of human pancreatic secreted PLA2 (hps PLA2) (P04054 23-148): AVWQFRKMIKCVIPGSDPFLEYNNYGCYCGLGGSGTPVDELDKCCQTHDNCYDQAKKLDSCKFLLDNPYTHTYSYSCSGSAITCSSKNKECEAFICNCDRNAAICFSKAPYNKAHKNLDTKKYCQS
Chain of porcine pancreatic secreted PLA2 (pps PLA2) (P00592 23-146): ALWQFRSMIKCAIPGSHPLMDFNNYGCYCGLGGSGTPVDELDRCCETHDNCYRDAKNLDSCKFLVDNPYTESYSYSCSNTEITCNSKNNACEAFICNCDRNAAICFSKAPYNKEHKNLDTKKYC
T1 sequence (P04054 23-148): as the sequence (P04054 23-148) above

## Cc1c(CC(N)=O)c2c(OCCCC(=O)O)cccc2n1Cc1ccccc1
[1]
  IC50: 3.66 µM

## NC(=O)Cc1c(Br)n(Cc2ccccc2)c2ccc(OCCCC(=O)O)cc12
[2]
  IC50: 2.86 µM
[1]
  IC50: 15.9 µM

## NC(=O)Cc1c(Br)n(Cc2ccccc2)c2ccc(OCCCP(=O)(O)O)cc12
[2]
  IC50: 2.2 µM
[1]
  IC50: 6.2 µM

## CCc1c(CC(N)=O)c2cc(OCCCP(=O)(O)O)ccc2n1Cc1cccc(Cl)c1
[1]
  IC50: 46.2 µM

## Cc1c(CC(N)=O)c2cc(CCCC(=O)O)ccc2n1Cc1ccccc1
[1]
  IC50: 94 µM

## CCc1c(CC(N)=O)c2cc(SCCCC(=O)O)ccc2n1Cc1ccccc1
[1]
  IC50: 16 µM

## Cc1c(CC(=O)NN)c2cc(OCCCC(=O)O)ccc2n1Cc1ccccc1
[2]
  IC50 (μM) pps PLA2: no activity
[1]
  IC50 (μM) hps PLA2: no activity

## Cc1c(C(=O)C(N)=O)c2c(/C=C/C(=O)O)cccc2n1Cc1ccccc1
[1]
  IC50: > 100 µM

## Cc1c(C(=O)C(N)=O)c2c(CCC(=O)O)cccc2n1Cc1ccccc1
[1]
  IC50: > 100 µM

## 2,2′,2″-(1,1′,1″-(12,12′,12″-(benzene-1,3,5-triyltris(oxy))tris(dodecane-12,1-diyl))tris(3-(2-amino-2-oxoacetyl)-2-methyl-1H-indole-4,1-diyl))tris(oxy)triacetic acid [ILY-v-32]
[3]
  effect in animals fed a low fat control diet containing test article: No or little effect
[4]
  effect in animals fed a low fat control diet containing test article: No or little effect
[5]
  clinical pathology data, treated groups vs vehicle control group: no differences

## Cc1c(C(=O)C(N)=O)c2c(OCC(=O)NS(=O)(=O)CCCC(=O)O)cccc2n1Cc1ccccc1 [ILY-IV-40, 4-[2-(3-Aminooxalyl-1-benzyl-2-methyl-1H-indol-4-yloxy)-acetylsulfamoyl]-butyric acid]
[6]; PO 30 mg/kg vs IV 3 mg/kg, CD-1 mice, serum LC/MS/MS
  Bioavailability (%): 0.50%
[3]
  effect in animals fed a low fat control diet containing test article: No or little effect
[4]
  effect in animals fed a low fat control diet containing test article: No or little effect
[5]
  clinical pathology data, treated groups vs vehicle control group: no differences

## Cc1c(C(=O)C(N)=O)c2c(OC(Br)(C(N)=O)C(F)(F)F)cccc2n1Cc1ccccc1 (stereo not drawn) [ILY-IV-53, 2-(3-Aminooxalyl-1-benzyl-2-methyl-1H-indol-4-yloxy)-2-bromo-3,3,3-trifluoro-propionamide]
[7]
  inhibition at 15 µM: 49%
[8]
  inhibition at 15 µM: 49.7%

## Cc1c(C(=O)C(N)=O)c2c(OCC(=O)O)cccc2n1CCCCCCCCCCCCSCCCCCCCCSCCCCCCCCCCCCn1c(C)c(C(=O)C(N)=O)c2c(OCC(=O)O)cccc21 [ILY-v-26, 2,2′-(1,1′-(12,12′-(Octane-1,8-diylbis(sulfanediyl))bis(dodecane-12,1-diyl))bis(3-(2-amino-2-oxoacetyl)-2-methyl-1H-indole-4,1-diyl))bis(oxy)diacetic acid]
[3]
  effect in animals fed a low fat control diet containing test article: No or little effect
[4]
  effect in animals fed a low fat control diet containing test article: No or little effect
[5]
  clinical pathology data, treated groups vs vehicle control group: no differences

## Cc1c(C(=O)C(N)=O)c2c(OCC(=O)O)cccc2n1CCCCCCCCCCCCOc1ccccc1OCCCCCCCCCCCCn1c(C)c(C(=O)C(N)=O)c2c(OCC(=O)O)cccc21 [ILY-v-27, [3-Aminooxalyl-1-(12-{2-[12-(3-aminooxalyl-4-carboxymethoxy-2-methyl-indol-1-yl)-dodecyloxy]-phenoxy}-dodecyl)-2-methyl-1H-indol-4-yloxy]-acetic acid]
[6]
  bioavailability: 1.49%

## Cc1c(C(=O)C(N)=O)c2c(OCC(=O)O)cccc2n1CCCCCCCCCCCCOc1ccc(C(C)(C)c2ccc(OCCCCCCCCCCCCn3c(C)c(C(=O)C(N)=O)c4c(OCC(=O)O)cccc43)cc2)cc1 [ILY-v-30, 2,2′-(1,1′-(12,12′-(4,4′-(propane-2,2-diyl)bis(4,1-phenylene))bis(oxy)bis(dodecane-12,1-diyl))bis(3-(2-amino-2-oxoacetyl)-2-methyl-1H-indole-4,1-diyl))bis(oxy)diacetic acid]
[3]
  effect in animals fed a low fat control diet containing test article: No or little effect
[4]
  effect in animals fed a low fat control diet containing test article: No or little effect
[5]
  clinical pathology data, treated groups vs vehicle control group: no differences

## Cc1c(C(=O)C(N)=O)c2c(OCC(=O)O)cccc2n1CCCCCCCCCCCCN(CCCCCCCCCCCCn1c(C)c(C(=O)C(N)=O)c2c(OCC(=O)O)cccc21)Cc1ccccc1 [ILY-v-31, 2,2′-(1,1′-(12,12′-(benzylazanediyl)bis(dodecane-12,1-diyl))bis(3-(2-amino-2-oxoacetyl)-2-methyl-1H-indole-4,1-diyl))bis(oxy)diacetic acid]
[6]
  bioavailability: 5.15%

## Cc1c(C(=O)C(N)=O)c2c(OCC(=O)O)cccc2n1CCCCCCCCCCCCOc1ccccc1-c1ccccc1OCCCCCCCCCCCCn1c(C)c(C(=O)C(N)=O)c2c(OCC(=O)O)cccc21 [ILY-v-37, [3-Aminooxalyl-1-(12-{2′-[12-(3-aminooxalyl-4-carboxymethoxy-2-methyl-indol-1-yl)-dodecyloxy]-biphenyl-2-yloxy}-dodecyl)-2-methyl-1H-indol-4-yloxy]-acetic acid]
[5]
  clinical pathology data, treated groups vs vehicle control group: no differences
